Assay [1] deals with platelet aggregation induced by PAF. In words: Inhibition of platelet aggregation induced by PAF. It is filed as cell-based. Conditions: Oryctolagus cuniculus, male New Zealand rabbits, Table I. On the procedure:
1) Inhibition of platelet aggregation induced by PAF
This experimentation was conducted according to the method of R. KINLOUGH. RATHBONE, J. P. CAZENAVE, M. PACKHAM and F. MUSTARD, Lab. Invest. 48, 98, 1980. In this test, New Zealand rabbits were used (male New Zealand rabbits of an average weight of 5 kg).
The determinations are made on a chrono-log Coultronics aggregometer, at […] coupled with a graphic recorder; the results of these determinations (in molecular concentration) are reported on the table I on the central column.

The target in another assay is benzodiazepine receptors. In words: Inhibition of the binding to benzodiazepine receptors. Conditions: rat brains, 1 hour 30 minutes at 4° C., tracers 3H-RO-15-1788 and 3H-RO-5-4864, Table I, read-out: BDZ receptors. An excerpt: 2) Inhibition of the binding to benzodiazepine receptors
The interest of the previous experimentation depends on the results obtained in this experimentation: as a compound of the invention has a benzodiazepine like structure, it is important to check whether the specific benzodiazepine activity would not appear at the dose where platelet aggregation was inhibited.
Therefore, this experimentation has been conducted according to the method of MOHLER H. and RICHARD J. G. Agonist and antagonist benzodiazepine receptor interaction in vitro, Nature, vol. 294, 763-765, 1981.
This experimentation was conducted on rat brains incubated 1 hour 30 minutes at 4° C. using ^3 H-RO-15-1788 and ^3 H-RO-5-4864 (NEN) as tracers and […] and RO-5-4864 as reference antagonists.
The results in molecular concentration are reported in the table I, on the right hand column.

Assay [2] is described as follows: Global ischemia on gerbils. It counts as in vivo. Conditions: Meriones unguiculatus, 168 h, carotides clamped 10 minutes, hippocampes one week later, 3H-PK 11195, percentage of protection compared to control. Here is the method:
3) Global ischemia on gerbils For this test, males gerbils were anaesthetized with brietal at the doses of 35 mg/kg IP; thereafter, both carotides were clamped for 10 minutes, then the clamping was released. Treated animals received each 10 mg/kg of the compounds of one of the examples. One week later, the animals were killed and both hippocampes were taken, weighed and frozen at -80° C. After crushing with 1 ml of TRIS-HCl pH 7.4 for 30 seconds, aliquots of each 50 μl of this preparation were incubed in each 1 ml of TRIS-HCl buffer containing ^3 H-PK 11195 at 2 nM (90 Ci/mmole, NENE, Germany) for 1 hour at 25° C. For each preparation, 3 determinations were made. The density of omega 3 sites (marked by the specific ^3 H-PK 11195 marker) are expressed in f-moles of PK 11195/mg of fresh tissues and converted in percentage of protection compared to control.

pIC50: −log10 of the molar value.

One may read the inhibition in vivo as the relative decrease from the control value, in per cent. A higher inhibition in vivo goes with a response far below the control. For `Cc1nnc2n1-c1sc3c(c1C(c1ccccc1Cl)=NC2)CCN(C(=O)CSC(C)C)C3` [Example 1, 6-(2-chlorophenyl)-9-(isopropylthiomethylcarbonyl)-7,8,9,10-tetrahydro-1-methyl-4H-pyrido [4',3':4,5] thieno [3,2-f] 1,2,4-triazolo [4,3-a] 1,4-diazepine], the pIC50 in assay [1] was 7.60; at benzodiazepine receptors, 5.17. For the same compound, in assay [2], testing at 10 mg/kg gave an inhibition in vivo of 54.2%.
Regarding `Cc1nnc2n1-c1sc3c(c1C(c1ccccc1Cl)=NC2)CCN(C(=S)CSC(C)C)C3` [Example 2, 6-(2-chlorophenyl)-9-(isopropylthiomethyl-thiocarbonyl)-7,8,9,10-tetrahydro-1-methyl-4H-pyrido [4',3':4,5] thieno [3,2-f] 1,2,4-triazolo [4,3-a] 1,4-diazepine], the pIC50 in assay [1] was 7.55; at benzodiazepine receptors it was 4.32. Further, the inhibition in vivo at 10 mg/kg in assay [2] amounted to 36.3%.
The like results for `Cc1nnc2n1-c1sc3c(c1C(c1ccccc1Cl)=NC2)CCN(C(=O)CSC(C)(C)C)C3` [Example 3, 6-(2-chlorophenyl)-9-(t.butylthiomethyl-carbonyl)-7,8,9, 10-tetrahydro-1-methyl-4H-pyrido [4',3':4,5] thieno [3,2-f] 1,2,4-triazolo[4,3-a] 1,4-diazepine] were, in that order, 7.77, 5.64 and 34.3%.
For `Cc1nnc2n1-c1sc3c(c1C(c1ccccc1Cl)=NC2)CCN(C(=S)CSC(C)(C)C)C3` [Example 4, 6-(2-chlorophenyl)-9-(t.butylthiomethyl-thiocarbonyl)-7,8,9, 10-tetrahydro-1-methyl-4H-pyrido [4',3':4,5] thieno [3,2-f] 1,2,4-triazolo[4,3-a] 1,4-diazepine] the same measures were 6.30, 5.81 and 38.1%.
Take `CCCCCCCCCCCCCCCCSCC(=O)N1CCc2c(sc3c2C(c2ccccc2Cl)=NCc2nnc(C)n2-3)C1` [Example 5, 6-(2-chlorophenyl)-9-(hexadecylthiomethyl-carbonyl)-7,8,9, 10-tetrahydro-1-methyl-4H-pyrido [4',3':4,5] thieno [3,2-f] 1,2,4-triazolo[4,3-a] 1,4-diazepine]: the pIC50 in assay [1] is 8.13; at benzodiazepine receptors, 6.92. Further, at 10 mg/kg the inhibition in vivo in assay [2] was 29.4%.
For `CCCCCCCCCCCCCCCCSCC(=S)N1CCc2c(sc3c2C(c2ccccc2Cl)=NCc2nnc(C)n2-3)C1` [Example 6, 6-(2-chlorophenyl)-9-(hexadecylthiomethyl-thiocarbonyl); 7,8,9, 10-tetrahydro-1-methyl-4H-pyrido [4',3':4,5] thieno [3,2-f] 1,2,4-triazolo[4,3-a] 1,4-diazepine] the same measures were 8.02, 6.04 and 27.8%.
Take `Cc1nnc2n1-c1sc3c(c1C(c1ccccc1Cl)=NC2)CCN(C(=O)CSc1ccccc1)C3` [Example 7, 6-(2-chlorophenyl)-9-(phenyl-thiomethyl-carbonyl)-7,8,9, 10-tetrahydro-1-methyl-4H-pyrido [4',3':4,5] thieno [3,2-f] 1,2,4-triazolo[4,3-a] 1,4-diazepine]: the pIC50 is 6.29 in assay [1] and 5.68 on benzodiazepine receptors. Also, the inhibition in vivo at 10 mg/kg in assay [2] amounted to 14.8%.
For the compound `Cc1nnc2n1-c1sc3c(c1C(c1ccccc1Cl)=NC2)CCN(C(=S)CSc1ccccc1)C3` [Example 8, 6-(2-chorophenyl)-9-(phenyl-thiomethyl-thiocarbonyl)-7,8,9, 10-tetrahydro-1-methyl-4H-pyrido [4',3':4,5] thieno [3,2-f] 1,2,4-triazolo[4,3-a] 1,4-diazepine], the pIC50 in assay [1] was 7.98; on benzodiazepine receptors, 5.13. In addition, the inhibition in vivo at 10 mg/kg in assay [2] amounted to 26.2%.
`COc1ccc(SCC(=O)N2CCc3c(sc4c3C(c3ccccc3Cl)=NCc3nnc(C)n3-4)C2)cc1` [Example 9, 6-(2-chlorophenyl)-9-(4-methoxyphenylthiomethyl-carbonyl)-7,8,9, 10-tetrahydro-1-methyl-4H-pyrido [4',3':4,5] thieno [3,2-f] 1,2,4-triazolo[4,3-a] 1,4-diazepine]: the pIC50 in assay [1] is 7.47; at benzodiazepine receptors it was 5.57. In assay [2], this compound registered an inhibition in vivo at 10 mg/kg of 31.2%.
The like results for `COc1ccc(SCC(=S)N2CCc3c(sc4c3C(c3ccccc3Cl)=NCc3nnc(C)n3-4)C2)cc1` [Example 10, 6-(2-chlorophenyl)-9-(4-methoxyphenylthiomethyl-thiocarbonyl)-7,8,9, 10-tetrahydro-1-methyl-4H-pyrido [4',3':4,5] thieno [3,2-f] 1,2,4-triazolo[4,3-a] 1,4-diazepine] were, in that order, 6.77, 4.18 and 10.3%.
Turning to `COc1ccc(SCC(=O)N2CCc3c(sc4c3C(c3ccccc3Cl)=NCc3nnc(C)n3-4)C2)cc1OC` [Example 11, 6-(2-chlorophenyl)-9-(3,4-dimethoxyphenylthiomethyl-carbonyl)-7,8,9, 10-tetrahydro-1-methyl-4H-pyrido [4',3':4,5] thieno [3,2-f] 1,2,4-triazolo[4,3-a] 1,4-diazepine], the pIC50 in assay [1] is 7.58; on benzodiazepine receptors it was 5.85. In assay [2], the inhibition in vivo at 10 mg/kg was found to be 46.5%.
Turning to `COc1ccc(SCC(=S)N2CCc3c(sc4c3C(c3ccccc3Cl)=NCc3nnc(C)n3-4)C2)cc1OC` [Example 12, 6-(2-chlorophenyl)-9-(3,4-dimethoxyphenylthiomethyl-thiocarbonyl)-7,8,9, 10-tetrahydro-1-methyl-4H-pyrido [4',3':4,5] thieno [3,2-f] 1,2,4-triazolo [4,3-a] 1,4-diazepine], the results for the pIC50 (in assay [1]; at benzodiazepine receptors) were 7.50 and 6.06, respectively. In assay [2], the inhibition in vivo at 10 mg/kg is 34.1%.
For `COc1cc(SCC(=O)N2CCc3c(sc4c3C(c3ccccc3Cl)=NCc3nnc(C)n3-4)C2)cc(OC)c1OC` [Example 13, 6-(2-chlorophenyl)-9-(3,4,5-trimethoxyphenylthiomethylcarbonyl)-7,8,9, 10-tetrahydro-1-methyl-4H-pyrido [4',3':4,5] thieno [3,2-f] 1,2,4-triazolo[4,3-a] 1,4-diazepine] the same measures were 7.73, 4.26 and 32.1%.
For the compound `COc1cc(SCC(=S)N2CCc3c(sc4c3C(c3ccccc3Cl)=NCc3nnc(C)n3-4)C2)cc(OC)c1OC` [Example 14, 6-(2-chlorophenyl)-9-(3,4,5-trimethoxyphenylthiomethyl-thiocarbonyl)-7,8,9, 10-tetrahydro-1-methyl-4H-pyrido [4',3':4,5] thieno [3,2-f] 1,2,4-triazolo [4,3-a] 1,4-diazepine], the pIC50 in assay [1] is 8.04; on benzodiazepine receptors, 5.82. Further, the inhibition in vivo at 10 mg/kg in assay [2] is 19.7%.
In the case of `COc1ccc(SCC(=O)N2CCc3c(sc4c3C(c3ccccc3Cl)=NCc3nnc(C)n3-4)C2)c(OC)c1OC` [Example 15, 6-(2-chlorophenyl)-9-(2,3,4-trimethoxyphenylthiomethyl-carbonyl)-7,8,9, 10-tetrahydro-1-methyl-4H-pyrido [4',3':4,5] thieno [3,2-f] 1,2,4-triazolo[4,3-a] 1,4-diazepine], the pIC50 in assay [1] is 6.92; on benzodiazepine receptors it was 5.44. The inhibition in vivo at 10 mg/kg in assay [2] amounted to 35.8%.
Regarding `COc1ccc(SCC(=S)N2CCc3c(sc4c3C(c3ccccc3Cl)=NCc3nnc(C)n3-4)C2)c(OC)c1OC` [Example 16, 6-(2-chlorophenyl)-9-(2,3,4-trimethoxyphenylthiomethylthiocarbonyl)-7,8,9, 10-tetrahydro-1-methyl-4H-pyrido [4',3':4,5] thieno [3,2-f] 1,2,4-triazolo [4,3-a] 1,4-diazepine], the pIC50 in assay [1] is 7.27; at benzodiazepine receptors it was 6.22. For the same compound, testing at 10 mg/kg in assay [2] gave an inhibition in vivo of 29.3%.
Consider `Cc1nnc2n1-c1sc3c(c1C(c1ccccc1Cl)=NC2)CCN(C(=O)CSc1ccc(C(C)(C)C)cc1)C3` [Example 17, 6-(2-chlorophenyl)-9-(4-t.butylphenylthiomethyl-carbonyl)-7,8,9, 10-tetrahydro-1-methyl-4H-pyrido [4',3':4,5] thieno [3,2-f] 1,2,4-triazolo[4,3-a] 1,4-diazepine], for which the pIC50 in assay [1] is 8.06; on benzodiazepine receptors, 5.33. In assay [2], 10 mg/kg produced 11.1% inhibition in vivo.

Values taken from patent publication US5049559A, “Thieno-triazolo-diazepine derivatives useful as anti-ischemic agents” (priority 1989, dated 1991).
